# Data taken from patent US20250129050A1, “SYNTHESIS OF A KIF18A INHIBITOR” (Amgen Inc., priority 2022, published 2025).
# Entries after “also recorded” stand apart in the source; their conditions may differ.
# Test: Dynamic Vapor Sorption (DVS) moisture sorption with pre and post DVS XRPD
# Format: physicochemical
# Conditions: after exposure to 80% relative humidity at 25° C. for 24 hours; hydrate
# Description: Moisture sorption data were collected using a DVS Endeavour. A sample size of about 30 mg was used. The temperature was 25° C. The relative humidity (RH) was held to 80% for 24 hours. Mass was recorded at the beginning and end of the experiment. Stability and Hygroscopicity Features of Crystalline Compound 6a-I as shown by Pre and Post DVS XRPD Experiment: Crystalline Compound 6a-I was exposed to 80% relative humidity at 25° C. for 24 hours using a DVS Endeavor instrument. The mass was recorded at the beginning and end of the exposure. […] Dynamic Vapor Sorption (DVS): The crystalline Compound 6a-I can be characterized by a DVS moisture sorption profile.
smiles,measurement,value
"O=S(CCOCc1ccccc1)[O][Ca][O]S(=O)CCOCc1ccccc1 (stereo not shown) [Compound 6a-I, calcium 2-(benzyloxy)ethane-1-sulfinate 4/3 hydrate]",crystalline form stability (XRPD pre DVS vs post DVS),no crystalline form change; also recorded: stable crystalline polymorph form
